Assay results as given in patent US20180086714A1 (priority 2015, published 2018).

Assays:
Format in all cases: cell-based
[1] = test system: Septoria tritici; test: Microtest, activity against leaf blotch on wheat; settings: 405 nm 9 days after inoculation, comparative example
[2] = test system: Phytophthora infestans; settings: 405 nm 7 days after inoculation, comparative example
[3] = test system: Leptosphaeria nodorum; test: Microtest, activity against wheat leaf spots; settings: 405 nm 9 days after inoculation, comparative example

Row | SMILES | Growth (%) at 8 ppm [1] | Growth (%) at 31 ppm [2] | Growth (%) at 2 ppm [3]
1 | CC1(C)N=C(c2cnc3ccccc3c2)c2ccccc2C1(C)C | 74% | – | –
2 | CC1(C)N=C(c2cnc3ccccc3c2)c2[nH]ccc2C1(C)C | 53% | – | –
3 | CC1(C)Cc2ccccc2C(c2cnc3ccccc3c2)=N1 [drawing 139] | – | 33% | –
4 | CC1(C)Cc2cc[nH]c2C(c2cnc3ccccc3c2)=N1 [drawing 140] | – | 17% | –
5 | CC1(C)Cc2ccccc2C(c2cnc3ccccc3c2)=N1 [drawing 141] | – | – | 83%
6 | CC1(C)Cc2cc[nH]c2C(c2cnc3ccccc3c2)=N1 [drawing 142] | – | – | 65%
